According to US12522606B2, “Modified pyrrolo- and pyrazolo-pyrimidines for prostate cancer therapy” (University of Washington, priority 2020, dated 2026):
pEC50: −log10 of the molar value.

Key:
PC3 = experiment: MTT proliferation assay, PC3; conditions: Homo sapiens; for inhibition at 10 µM: PC-3, read-out: MTT % inhib @ 10 μM PC3; for pEC50: read-out: EC50 PC3
LNCaP95 = experiment: MTT proliferation assay, LNCaP95; assay type: cell-based; conditions: Homo sapiens, LNCaP-95; for pEC50: Table 1, LNCaP95 (AR+ PCa), unit inferred; for inhibition at 10 µM: read-out: MTT % inhib @ 10 μM LNCaP95
Experimental: Anti-tumor activity was determined by screening a series of compounds against the castrate-resistant, androgen-receptor-positive, prostate cancer cell line LNCaP95. […] Inhibition of proliferation was determined based on the level of LNCaP95 cell growth suppression using an MTT assay (NAD(P)H-dependent cellular oxidoreductase enzymatic activities)) read at 72 and 96 hours after addition of the compounds. […] Each cell line was be tested in quadruplicate.

Compound | pEC50 (PC3) | pEC50 (LNCaP95) | inhibition at 10 µM (PC3) [%] | inhibition at 10 µM (LNCaP95) [%]
CC(C)(O)Cn1cc(-c2ccc3cc(OC4CC4)ccc3c2)c2c(NCCO)ncnc21 [Example 26, 1-(5-(6-cyclopropoxynaphthalen-2-yl)-4-(2-hydroxyethylamino)-7H-pyrrolo[2,3-d]pyrimidin-7-yl)-2-methylpropan-2-ol] | < 4.70 | 5.30 | 9.2 | 40.6
CC(C)(O)Cn1cc(-c2ccc3cc(OC4CC4)ccc3c2)c2c(NCCOCCN)ncnc21 [Example 27, 1-(4-(2-(2-aminoethoxy)ethylamino)-5-(6-cyclopropoxynaphthalen-2-yl)-7H-pyrrolo[2,3-d]pyrimidin-7-yl)-2-methylpropan-2-ol] | < 4.70 | < 5.00 | -5.2 | 8.6
CC(C)(O)Cn1cc(-c2ccc3cc(OC4CC4)ccc3c2)c2c(NCCOCCNC(=O)OC3CC/C=C/CCC3)ncnc21 (stereo not drawn) [Example 29, trans-cyclooct-4-enyl 2-(2-(5-(6-cyclopropoxynaphthalen-2-yl)-7-(2-hydroxy-2-methylpropyl)-7H-pyrrolo[2,3-d]pyrimidin-4-ylamino)ethoxy)ethylcarbamate] | < 4.70 | 5.30 | -31 | 33.7
CC(C)(O)Cn1cc(-c2ccc(-c3ccccc3)cc2)c2c(NCCO)ncnc21 [Example 30, 1-(5-(biphenyl-4-yl)-4-(2-hydroxyethylamino)-7H-pyrrolo[2,3d]pyrimidin-7-yl)-2-methylpropan-2-ol] | < 4.70 | 5.40 | -18.1 | 37.8
CCc1ccc(-c2ccc(-c3cn(CC(C)(C)OC)c4ncnc(NC)c34)cc2)cc1 [Example 34, 5-(4′-ethylbiphenyl-4-yl)-7-(2-methoxy-2-methylpropyl)-N-methyl-7H-pyrrolo[2,3-d]pyrimidin-4-amine] | < 4.70 | 5.22 | 9.1 | 29.7
CCOCCNc1ncnc2c1c(-c1ccc3cc(OC4CC4)ccc3c1)cn2CC(C)(C)O [Example 35, 1-(5-(6-cyclopropoxynaphthalen-2-yl)-4-(2-ethoxyethylamino)-7H-pyrrolo[2,3-d]pyrimidin-7-yl)-2-methylpropan-2-ol] | < 4.70 | 5.40 | 16.5 | 27.1
CCOCCNc1ncnc2c1c(-c1ccc3cc(OC(C)C)ccc3c1)cn2CC(C)(C)O [Example 36, 1-(4-(2-ethoxyethylamino)-5-(6-isopropoxynaphthalen-2-yl)-7H-pyrrolo[2,3-d]pyrimidin-7-yl)-2-methylpropan-2-ol] | < 4.70 | 5.10 | 15.7 | 22
CCOCCNc1ncnc2c1c(-c1ccc(-c3ccccc3)cc1)cn2CC(C)(C)O [Example 37, 1-(5-(biphenyl-4-yl)-4-(2-ethoxyethylamino)-7H-pyrrolo[2,3-d]pyrimidin-7-yl)-2-methylpropan-2-ol] | < 4.70 | < 5.00 | 9 | 8.4
CCOCCNc1ncnc2c1c(-c1ccc(-c3ccc(OC)cc3)cc1)cn2CC(C)(C)O [Example 38, 1-(4-(2-ethoxyethylamino)-5-(4′-methoxybiphenyl-4-yl)-7H-pyrrolo[2,3-d]pyrimidin-7-yl)-2-methylpropan-2-ol] | < 4.70 | 5.40 | 11.6 | 39.5
CCOCCNc1ncnc2c1c(-c1ccc(-c3ccc(CC)cc3)cc1)cn2CC(C)(C)O [Example 39, 1-(4-(2-ethoxyethylamino)-5-(4′-ethylbiphenyl-4-yl)-7H-pyrrolo[2,3-d]pyrimidin-7-yl)-2-methylpropan-2-ol] | < 4.70 | < 5.00 | 8.3 | 29.2
CCOCCNc1ncnc2c1c(-c1ccc(-c3ccc(Br)cc3)cc1)cn2CC(C)(C)O [Example 40, 1-(5-(4′-bromobiphenyl-4-yl)-4-(2-ethoxyethylamino)-7H-pyrrolo[2,3-d]pyrimidin-7-yl)-2-methylpropan-2-ol] | < 4.70 | < 5.00 | 11.1 | -0.2
COc1ccc2cc(-c3cn(CC(C)(C)O)c4ncnc(NC5CC5)c34)ccc2c1 [Example 42, 1-(4-(cyclopropylamino)-5-(6-methoxynaphthalen-2-yl)-7H-pyrrolo[2,3-d]pyrimidin-7-yl)-2-methylpropan-2-ol] | < 4.70 | 4.70 |  | 
COc1ccc2cc(-c3cn(CC(C)(C)O)c4ncnc(NC(C)C)c34)ccc2c1 [Example 45, 1-(4-(isopropylamino)-5-(6-methoxynaphthalen-2-yl)-7H-pyrrolo[2,3-d]pyrimidin-7-yl)-2-methylpropan-2-ol] | < 4.70 | 5.30 |  | 

More lines, main results first:

pEC50 (PC3) | pEC50 (LNCaP95) | Compound | inhibition at 10 µM (PC3) [%] | inhibition at 10 µM (LNCaP95) [%]
< 4.70 | 4.92 | COCCOc1ncnc2c1c(-c1ccc3ccccc3c1)cn2CC(C)(C)O [Example 7, 1-(4-(2-methoxyethoxy)-5-(naphthalen-2-yl)-7H-pyrrolo[2,3-d]pyrimidin-7-yl)-2-methylpropan-2-ol] | -36.2 | 23.9
< 4.70 | 5.70 | C#CCCC1(CCOC(=O)NCCNc2ncnc3c2c(-c2ccc4cc(OCC)ccc4c2)cn3CC(C)(C)O)N=N1 [Example 10, 2-(3-(but-3-ynyl)-3H-diazirin-3-yl)ethyl 2-(5-(6-ethoxynaphthalen-2-yl)-7-(2-hydroxy-2-methylpropyl)-7H-pyrrolo[2,3-d]pyrimidin-4-ylamino)ethylcarbamate] |  | 
< 4.70 | < 4.82 | CNc1ncnc2c1c(-c1cccc(C(C)C)c1)nn2CC(C)(C)O [Example 16, 1-(3-(3-isopropylphenyl)-4-(methylamino)-1H-pyrazolo[3,4-d]pyrimidin-1-yl)-2-methylpropan-2-ol] | -10.5 | 11.3
5.00 | 5.60 | CC(C)(O)Cn1cc(-c2ccc3cc(OC4CC4)ccc3c2)c2c(NC3CC3)ncnc21 [Example 17, 1-(5-(6-cyclopropoxynaphthalen-2-yl)-4-(cyclopropylamino)-7H-pyrrolo[2,3-d]pyrimidin-7-yl)-2-methylpropan-2-ol] |  | 
< 4.70 | 5.30 | CNc1ncnc2c1c(-c1cccc(-c3ccccc3)c1)nn2CC(C)(C)O [Example 19, 1-(3-(biphenyl-3-yl)-4-(methylamino)-1H-pyrazolo[3,4-d]pyrimidin-1-yl)-2-methylpropan-2-ol] | 4.4 | 21.3
< 4.70 | < 4.70 | CNc1ncnc2c1c(-c1ccc(-c3ccccc3)cc1F)nn2CC(C)(C)O [Example 20, 1-(3-(3-fluorobiphenyl-4-yl)-4-(methylamino)-1H-pyrazolo[3,4-d]pyrimidin-1-yl)-2-methylpropan-2-ol] | 8.3 | 16.5
< 4.70 | 5.15 | CNc1ncnc2c1c(-c1cccc(C(C)C)c1)cn2CC(C)(C)OC [Example 21, 5-(3-isopropylphenyl)-7-(2-methoxy-2-methylpropyl)-N-methyl-7H-pyrrolo[2,3-d]pyrimidin-4-amine] | -5.4 | -2.7
< 4.70 | < 5.00 | CCOc1ccc2cc(-c3cn(CC(C)(C)O)c4ncnc(NCCN)c34)ccc2c1 [Example 23, 1-(4-(2-aminoethylamino)-5-(6-ethoxynaphthalen-2-yl)-7H-pyrrolo[2,3-d]pyrimidin-7-yl)-2-methylpropan-2-ol] | 27.2 | 22.9
< 4.70 | < 5.00 | CC(C)(O)Cn1cc(-c2ccc3cc(OC4CC4)ccc3c2)c2c(NCCN)ncnc21 [Example 24, 1-(4-(2-aminoethylamino)-5-(6-cyclopropoxynaphthalen-2-yl)-7H-pyrrolo[2,3-d]pyrimidin-7-yl)-2-methylpropan-2-ol] | 6.7 | 35.1
< 4.70 | 5.30 | CCOc1ccc2cc(-c3cn(CC(C)(C)O)c4ncnc(NCCO)c34)ccc2c1 [Example 25, 1-(5-(6-ethoxynaphthalen-2-yl)-4-(2-hydroxyethylamino)-7H-pyrrolo[2,3-d]pyrimidin-7-yl)-2-methylpropan-2-ol] | 10.3 | 34.6
5.00 | 5.22 | CCOc1ccc2cc(-c3cn(CC(C)(C)O)c4ncnc(NC5CC5)c34)ccc2c1 [Example 41, 1-(4-(cyclopropylamino)-5-(6-ethoxynaphthalen-2-yl)-7H-pyrrolo[2,3-d]pyrimidin-7-yl)-2-methylpropan-2-ol] |  | 
4.70 | 5.00 | CC(C)Nc1ncnc2c1c(-c1ccc3cc(OC4CC4)ccc3c1)cn2CC(C)(C)O [Example 43, 1-(5-(6-cyclopropoxynaphthalen-2-yl)-4-(isopropylamino)-7H-pyrrolo[2,3-d]pyrimidin-7-yl)-2-methylpropan-2-ol] |  | 
4.70 | 5.30 | CCOc1ccc2cc(-c3cn(CC(C)(C)O)c4ncnc(NC(C)C)c34)ccc2c1 [Example 44, 1-(5-(6-ethoxynaphthalen-2-yl)-4-(isopropylamino)-7H-pyrrolo[2,3-d]pyrimidin-7-yl)-2-methylpropan-2-ol] |  | 
